Experimental data reported in patent US20030171400A1, “Heterocyclic side chain containing metalloprotease inhibitors” (priority 2000, published 2003).

Legend:
Type in all cases: in vivo
[1] = test system: human subject suffering from osteoarthritis; assay: Example B: capsule treatment of a subject suffering from osteoarthritis; conditions: capsule containing 70 mg daily for 5 years, 90 kg human
Experimental: A capsule for oral administration, according to the present invention, is made comprising:
A human subject weighing 90 kg (198 lbs.), suffering from osteoarthritis, is treated by a method of this invention. Specifically, for 5 years, a capsule containing 70 mg of the compound of Example 3 is administered daily to said subject.

[2] = test system: human subject suffering from rheumatoid arthritis; assay: Example A: tablet treatment of a subject suffering from rheumatoid arthritis; conditions: tablet with 15 mg compound, three tablets per day orally for 2 years, 60 kg human
Experimental: A tablet composition for oral administration, according to the present invention, is made comprising:
A human subject weighing 60 kg (132 lbs), suffering from rheumatoid arthritis, is treated by a method of this invention. Specifically, for 2 years, a regimen of three tablets per day is administered orally to said subject.

asthma sufferer = assay: Example E: inhalation aerosol for asthma; conditions: 5.0% w/v inhalation aerosol, 0.01 mL sprayed into the mouth while inhaling
Experimental: An inhalation aerosol composition, according to the present invention, is made comprising: An asthma sufferer sprays 0.01 mL via a pump actuator into the mouth while inhaling.

Structure (SMILES): CC(C)(C)OC(=O)N1CCC(C(NS(=O)(=O)c2ccc(Oc3ccccc3)cc2)C(=O)O)CC1 (stereo not drawn) [Example 3, 4-[Carboxy-(4-phenoxy-benzenesulfonylamino)-methyl]-piperidine-1-carboxylic acid tert-butyl ester]
- erosion/fibrillation of the articular cartilage via x-ray, arthroscopy and/or MRI at the end of treatment [1]: no further advancement of erosion/fibrillation of the articular cartilage

Structure (SMILES): COCCOC(=O)N1CCC(C(NS(=O)(=O)c2ccc(-c3ccc(OC)cc3)cc2)C(=O)O)CC1 (stereo not drawn) [Example 31, 4-[Carboxy-(4′-methoxy-biphenyl-4-sulfonylamino)-methyl]-piperidine-1-carboxylic acid 2-methoxy-ethyl ester]
- patient examination at the end of the treatment period (inflammation, mobility, pain) [2]: reduced inflammation, and improved mobility without concomitant pain

Structure (SMILES): COc1ccc(-c2ccc(S(=O)(=O)NC3(C(=O)O)CCNCC3)cc2)cc1 [Example 56, 4-(4′-Methoxy-biphenyl-4-sulfonylamino)-piperidine-4-carboxylic acid]
- asthma symptoms (asthma sufferer): Asthma symptoms are diminished
